Data: publication PMC9191647 (Neuropharmacology, 2019)
Several values for one entry are separate records, joined by “and”; a condition that tells them apart may be missing. Equal values may be shown once. Read-outs that look alike come from different tables or passages of the source.

Columns and labels:
5-HT2A = settings: human 5-HT2A receptor vs. [^3H] ketanserin; ref Johnson et al., 1994; cited from earlier work
human 5-HT1A receptor = target: T1, human 5-HT1A receptor (Homo sapiens, UniProt P08908); assay: Competitive radioligand binding; settings: for fold lower affinity than LSD for the 5-HT1A receptor: human 5-HT1A, relative to LSD
T1 sequence (P08908 1-422): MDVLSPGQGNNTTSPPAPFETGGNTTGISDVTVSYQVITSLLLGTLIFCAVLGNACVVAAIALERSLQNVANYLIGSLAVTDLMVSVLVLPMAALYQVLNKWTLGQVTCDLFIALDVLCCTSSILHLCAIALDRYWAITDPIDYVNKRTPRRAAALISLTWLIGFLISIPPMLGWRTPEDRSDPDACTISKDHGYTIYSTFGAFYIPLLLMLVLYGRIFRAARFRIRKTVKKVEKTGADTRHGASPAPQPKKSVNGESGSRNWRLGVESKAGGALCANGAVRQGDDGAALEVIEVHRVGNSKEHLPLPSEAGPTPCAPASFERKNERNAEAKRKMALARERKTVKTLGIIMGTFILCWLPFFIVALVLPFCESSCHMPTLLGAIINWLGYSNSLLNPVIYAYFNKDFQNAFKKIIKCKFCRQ

human 5-HT2A receptor = human 5-HT2A receptor (Homo sapiens, UniProt P28223); assay: Competitive radioligand binding
human 5-HT2A receptor, sequence (P28223 whole entry): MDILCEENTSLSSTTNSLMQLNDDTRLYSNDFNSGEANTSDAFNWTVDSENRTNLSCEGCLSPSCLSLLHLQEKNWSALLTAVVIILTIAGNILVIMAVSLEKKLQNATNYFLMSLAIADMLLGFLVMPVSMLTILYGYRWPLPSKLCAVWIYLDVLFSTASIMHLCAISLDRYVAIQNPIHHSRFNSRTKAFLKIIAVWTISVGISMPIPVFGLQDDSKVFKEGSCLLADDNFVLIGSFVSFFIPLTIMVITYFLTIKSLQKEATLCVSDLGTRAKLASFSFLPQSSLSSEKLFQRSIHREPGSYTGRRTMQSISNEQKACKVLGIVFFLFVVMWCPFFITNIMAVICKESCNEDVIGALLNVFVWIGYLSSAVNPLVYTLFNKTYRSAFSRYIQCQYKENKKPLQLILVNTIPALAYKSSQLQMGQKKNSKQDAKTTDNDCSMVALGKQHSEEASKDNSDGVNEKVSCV

human 5-HT2C receptor = target: T2, human 5-HT2C receptor (Homo sapiens, UniProt P28335); assay: biochemical; format: binding
T2 sequence (P28335 33-458): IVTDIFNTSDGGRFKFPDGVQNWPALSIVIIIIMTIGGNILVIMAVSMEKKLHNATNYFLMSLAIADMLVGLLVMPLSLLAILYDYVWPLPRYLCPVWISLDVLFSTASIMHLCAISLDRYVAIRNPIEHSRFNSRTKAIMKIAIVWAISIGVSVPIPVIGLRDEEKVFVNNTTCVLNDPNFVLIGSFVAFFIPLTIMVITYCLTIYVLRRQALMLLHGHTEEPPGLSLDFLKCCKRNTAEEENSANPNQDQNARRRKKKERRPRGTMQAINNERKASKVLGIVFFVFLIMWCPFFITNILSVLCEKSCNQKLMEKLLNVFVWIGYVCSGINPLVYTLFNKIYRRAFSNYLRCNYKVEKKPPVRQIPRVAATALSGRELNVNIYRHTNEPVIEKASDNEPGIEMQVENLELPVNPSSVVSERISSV

5-HT1B = 5-HT1B (Homo sapiens, UniProt P28222); assay: Competitive radioligand binding
5-HT1D = 5-HT1D (Homo sapiens, UniProt P28221); assay: Competitive radioligand binding
5-HT2B = 5-HT2B (Homo sapiens, UniProt P41595); assay: Competitive radioligand binding
5-HT2B, sequence (P41595 whole entry): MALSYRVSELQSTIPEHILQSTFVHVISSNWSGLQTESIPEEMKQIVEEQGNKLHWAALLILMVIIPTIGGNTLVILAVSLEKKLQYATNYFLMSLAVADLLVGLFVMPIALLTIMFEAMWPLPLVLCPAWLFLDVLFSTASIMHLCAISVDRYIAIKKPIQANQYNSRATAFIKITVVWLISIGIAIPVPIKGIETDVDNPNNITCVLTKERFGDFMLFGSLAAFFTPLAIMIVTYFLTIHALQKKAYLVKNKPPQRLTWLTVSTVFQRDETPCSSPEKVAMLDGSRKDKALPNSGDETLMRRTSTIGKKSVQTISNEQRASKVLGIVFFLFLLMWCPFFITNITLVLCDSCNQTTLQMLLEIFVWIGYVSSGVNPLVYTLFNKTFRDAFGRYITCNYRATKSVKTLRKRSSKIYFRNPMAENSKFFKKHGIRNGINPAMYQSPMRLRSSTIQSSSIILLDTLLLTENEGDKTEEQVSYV

5-HT5a = 5-HT5a (Homo sapiens, UniProt P47898); assay: Competitive radioligand binding
5-HT6 = 5-HT6 (Homo sapiens, UniProt P50406); assay: Competitive radioligand binding
5-HT7A = 5-HT7A (Homo sapiens, UniProt P34969); assay: Competitive radioligand binding
α1A = α1A (Homo sapiens, UniProt P35348); assay: Competitive radioligand binding
α1B = α1B (Homo sapiens, UniProt P35368); assay: Competitive radioligand binding
α1B, sequence (P35368 whole entry): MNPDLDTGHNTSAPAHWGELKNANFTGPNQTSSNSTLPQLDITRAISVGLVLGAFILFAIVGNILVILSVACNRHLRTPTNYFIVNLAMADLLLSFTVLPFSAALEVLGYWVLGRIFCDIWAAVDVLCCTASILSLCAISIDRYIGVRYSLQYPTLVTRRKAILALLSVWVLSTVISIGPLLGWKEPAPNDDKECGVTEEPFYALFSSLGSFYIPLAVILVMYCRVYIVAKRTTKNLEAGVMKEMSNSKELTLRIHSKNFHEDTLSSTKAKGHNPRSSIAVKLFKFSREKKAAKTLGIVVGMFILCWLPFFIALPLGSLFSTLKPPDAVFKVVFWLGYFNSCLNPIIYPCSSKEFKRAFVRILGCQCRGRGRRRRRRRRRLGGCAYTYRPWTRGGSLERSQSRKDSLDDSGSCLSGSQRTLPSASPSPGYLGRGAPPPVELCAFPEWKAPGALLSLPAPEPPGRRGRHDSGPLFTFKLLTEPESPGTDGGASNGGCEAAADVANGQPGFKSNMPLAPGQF

α1D = α1D (Homo sapiens, UniProt P25100); assay: Competitive radioligand binding
α2A = α2A (Homo sapiens, UniProt P08913); assay: Competitive radioligand binding
α2B = α2B (Homo sapiens, UniProt P18089); assay: Competitive radioligand binding
α2B, sequence (P18089 whole entry): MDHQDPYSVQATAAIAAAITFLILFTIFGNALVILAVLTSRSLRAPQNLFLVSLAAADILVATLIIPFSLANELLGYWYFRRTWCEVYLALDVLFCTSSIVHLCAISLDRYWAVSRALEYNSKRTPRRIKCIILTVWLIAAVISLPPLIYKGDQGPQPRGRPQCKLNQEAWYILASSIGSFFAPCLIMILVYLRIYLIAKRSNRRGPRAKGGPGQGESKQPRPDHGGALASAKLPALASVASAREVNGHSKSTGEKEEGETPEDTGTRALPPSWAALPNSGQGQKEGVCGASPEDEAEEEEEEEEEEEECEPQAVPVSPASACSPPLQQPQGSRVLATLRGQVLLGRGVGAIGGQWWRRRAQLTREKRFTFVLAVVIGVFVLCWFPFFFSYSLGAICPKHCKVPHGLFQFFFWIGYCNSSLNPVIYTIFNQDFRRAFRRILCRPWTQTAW

α2C = α2C (Homo sapiens, UniProt P18825); assay: Competitive radioligand binding
α2C, sequence (P18825 whole entry): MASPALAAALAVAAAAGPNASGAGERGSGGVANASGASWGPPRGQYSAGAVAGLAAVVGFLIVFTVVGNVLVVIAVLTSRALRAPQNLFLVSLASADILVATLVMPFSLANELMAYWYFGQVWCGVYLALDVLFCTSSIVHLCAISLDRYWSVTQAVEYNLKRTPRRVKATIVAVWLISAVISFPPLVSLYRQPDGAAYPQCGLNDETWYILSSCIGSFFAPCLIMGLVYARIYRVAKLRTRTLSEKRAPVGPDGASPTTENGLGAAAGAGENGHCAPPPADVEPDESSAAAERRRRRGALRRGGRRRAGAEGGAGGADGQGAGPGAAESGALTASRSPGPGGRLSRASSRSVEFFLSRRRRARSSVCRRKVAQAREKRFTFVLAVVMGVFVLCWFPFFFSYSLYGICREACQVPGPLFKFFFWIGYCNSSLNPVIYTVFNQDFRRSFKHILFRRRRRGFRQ

β1 = β1 (Homo sapiens, UniProt P08588); assay: Competitive radioligand binding; parameters: species or system Human (heart)
β2 = β2 (Homo sapiens, UniProt P07550); assay: Competitive radioligand binding
β3 = β3 (Homo sapiens, UniProt P13945); assay: Competitive radioligand binding
D1 = D1 (Homo sapiens, UniProt P21728); assay: Competitive radioligand binding
D1, sequence (P21728 whole entry): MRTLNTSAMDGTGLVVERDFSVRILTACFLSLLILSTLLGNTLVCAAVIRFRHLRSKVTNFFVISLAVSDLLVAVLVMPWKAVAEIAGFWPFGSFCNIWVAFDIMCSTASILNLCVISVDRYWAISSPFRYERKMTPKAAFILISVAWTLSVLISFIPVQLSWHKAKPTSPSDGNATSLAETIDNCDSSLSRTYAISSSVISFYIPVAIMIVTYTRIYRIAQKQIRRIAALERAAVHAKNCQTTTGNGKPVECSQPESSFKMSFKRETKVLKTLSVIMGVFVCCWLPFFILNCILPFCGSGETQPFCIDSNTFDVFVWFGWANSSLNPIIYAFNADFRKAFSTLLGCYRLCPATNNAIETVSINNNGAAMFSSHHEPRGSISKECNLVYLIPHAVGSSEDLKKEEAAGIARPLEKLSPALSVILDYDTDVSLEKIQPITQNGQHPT

D2 = D2 (Homo sapiens, UniProt P14416); assay: Competitive radioligand binding
D3 = D3 (Homo sapiens, UniProt P35462); assay: Competitive radioligand binding
D3, sequence (P35462 whole entry): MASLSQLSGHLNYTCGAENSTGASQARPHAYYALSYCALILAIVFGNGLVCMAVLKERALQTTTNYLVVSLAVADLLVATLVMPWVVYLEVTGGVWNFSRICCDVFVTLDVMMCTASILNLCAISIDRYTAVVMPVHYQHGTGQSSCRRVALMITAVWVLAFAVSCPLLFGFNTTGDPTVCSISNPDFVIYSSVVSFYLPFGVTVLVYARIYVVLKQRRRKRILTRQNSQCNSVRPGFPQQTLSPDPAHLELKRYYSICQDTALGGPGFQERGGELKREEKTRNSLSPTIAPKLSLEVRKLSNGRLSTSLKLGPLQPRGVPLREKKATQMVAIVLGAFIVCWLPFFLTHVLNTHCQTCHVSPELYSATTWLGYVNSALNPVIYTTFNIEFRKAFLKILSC

D4 = D4 (Homo sapiens, UniProt P21917); assay: Competitive radioligand binding
D5 = D5 (Homo sapiens, UniProt P21918); assay: Competitive radioligand binding
H1 = H1 (Homo sapiens, UniProt P35367); assay: Competitive radioligand binding
H2 = H2 (Homo sapiens, UniProt P25021); assay: Competitive radioligand binding
H2, sequence (P25021 whole entry): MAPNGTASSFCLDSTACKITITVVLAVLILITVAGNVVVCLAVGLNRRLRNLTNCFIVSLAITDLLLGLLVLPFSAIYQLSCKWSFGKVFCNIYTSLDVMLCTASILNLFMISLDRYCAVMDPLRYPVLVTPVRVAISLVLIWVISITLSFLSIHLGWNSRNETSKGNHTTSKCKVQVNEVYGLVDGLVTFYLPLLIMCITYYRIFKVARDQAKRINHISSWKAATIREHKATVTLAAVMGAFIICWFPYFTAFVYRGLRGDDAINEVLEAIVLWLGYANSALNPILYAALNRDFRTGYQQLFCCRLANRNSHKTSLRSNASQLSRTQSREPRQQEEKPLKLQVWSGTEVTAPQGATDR

H3 = H3 (Cavia porcellus, UniProt Q9JI35); assay: Competitive radioligand binding; parameters: species or system Guinea pig
H4 = H4 (Homo sapiens, UniProt Q9H3N8); assay: Competitive radioligand binding
H4, sequence (Q9H3N8 whole entry): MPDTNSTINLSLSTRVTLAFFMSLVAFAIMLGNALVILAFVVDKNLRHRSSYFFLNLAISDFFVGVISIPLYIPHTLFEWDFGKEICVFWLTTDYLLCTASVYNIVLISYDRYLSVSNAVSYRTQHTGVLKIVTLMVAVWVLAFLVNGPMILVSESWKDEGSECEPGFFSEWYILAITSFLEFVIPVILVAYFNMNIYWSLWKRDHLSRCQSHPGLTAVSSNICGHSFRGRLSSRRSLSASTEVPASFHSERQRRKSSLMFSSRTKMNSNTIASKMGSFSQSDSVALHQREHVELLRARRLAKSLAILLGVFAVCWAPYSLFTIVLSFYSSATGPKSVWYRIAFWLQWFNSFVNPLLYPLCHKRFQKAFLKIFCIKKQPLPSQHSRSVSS

human 5-HT2A (h5-HT2A) = human 5-HT2A (h5-HT2A) (Homo sapiens, UniProt P28223); assay: Gq-mediated calcium flux in Flp-In T-REx 293 cells; format: cell-based; settings: for EC50: Ca^2+ flux; for Emax % 5-HT: percent 5-HT maximum response
human 5-HT2A (h5-HT2A), sequence (P28223 whole entry): as the sequence (P28223 whole entry) above

mouse 5-HT2A (m5-HT2A) = mouse 5-HT2A (m5-HT2A) (Mus musculus, UniProt P35363); assay: Gq-mediated calcium flux in Flp-In T-REx 293 cells; format: cell-based; settings: for Emax % 5-HT: percent 5-HT maximum response
mouse 5-HT2A (m5-HT2A), sequence (P35363 whole entry): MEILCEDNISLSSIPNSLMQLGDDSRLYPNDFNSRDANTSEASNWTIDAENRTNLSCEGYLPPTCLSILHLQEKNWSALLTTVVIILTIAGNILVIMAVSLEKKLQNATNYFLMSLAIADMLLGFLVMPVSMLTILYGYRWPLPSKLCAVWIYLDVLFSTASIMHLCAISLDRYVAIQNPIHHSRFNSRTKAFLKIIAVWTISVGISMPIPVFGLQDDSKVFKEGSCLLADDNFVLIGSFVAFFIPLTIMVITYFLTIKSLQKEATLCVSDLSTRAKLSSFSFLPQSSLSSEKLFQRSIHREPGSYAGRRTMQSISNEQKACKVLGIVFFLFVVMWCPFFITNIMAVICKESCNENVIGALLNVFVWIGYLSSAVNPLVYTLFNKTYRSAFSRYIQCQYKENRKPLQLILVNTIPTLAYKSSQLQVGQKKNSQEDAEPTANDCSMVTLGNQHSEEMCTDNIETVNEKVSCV

human 5-HT2B (h5-HT2B) = human 5-HT2B (h5-HT2B) (Homo sapiens, UniProt P41595); assay: Gq-mediated calcium flux in Flp-In T-REx 293 cells; format: cell-based; settings: Ca^2+ flux
human 5-HT2B (h5-HT2B), sequence (P41595 whole entry): as the sequence (P41595 whole entry) above

[1] = target: T3, human 5-HT2C INI (h5-HT2C) (Homo sapiens, UniProt P28335); format: cell-based
T3 sequence (P28335 33-458): T2 sequence (P28335 33-458)

male C57BL/6J mice [2] = assay: Head-twitch response; format: in vivo, mouse; settings: HTR in mice
male C57BL/6J mice [3] = settings: HTR, cited from earlier work; for ED50 μg/kg (95% CI): hemitartrate (2:1) salt

## CN1C[C@H](C(=O)NC2CCCCC2)C[C@@H]2c3cccc4[nH]cc(c34)C[C@H]21 [LY193525]
5-HT2A
  Ki: 0.73 nM

## CCCC(=O)n1cc2c3c(cccc31)C1=C[C@@H](C(=O)N(CC)CC)CN(C)[C@@H]1C2 [1B-LSD, 1-butanoyl-D-lysergic acid diethylamide]
Human 5-HT1A receptor
  Ki: 345 ± 118 nM
  fold lower affinity than LSD for the 5-HT1A receptor: 36 fold
Human 5-HT2A receptor
  Ki: 87.7 ± 9.4 nM
Human 5-HT2C receptor
  Ki: 20.8 nM
5-HT1B
  Ki: 1460 nM
5-HT1D
  Ki: 295 ± 77 nM
5-HT2B
  Ki: 3.5 ± 0.6 nM
5-HT5a
  Ki: 158 ± 42 nM
5-HT6
  Ki: 607 ± 112 nM
5-HT7A
  Ki: 554 ± 158 nM
α1A
  Ki: > 10000 nM
α1B
  Ki: > 10000 nM
α1D
  Ki: > 10000 nM
α2A
  Ki: 537 ± 85 nM
α2B
  Ki: 2660 nM
α2C
  Ki: 812 ± 267 nM
β1
  Ki: > 10000 nM
β2
  Ki: > 10000 nM
β3
  Ki: > 10000 nM
D1
  Ki: 1170 nM
D2
  Ki: > 10000 nM
D3
  Ki: 352 ± 64 nM
D4
  Ki: 2270 nM
D5
  Ki: > 10000 nM
H1
  Ki: > 10000 nM
H2
  Ki: 842 ± 201 nM
H3
  Ki: > 10000 nM
H4
  Ki: > 10000 nM
Human 5-HT2A (h5-HT2A); EC50, nM
  EC50: 85 nM
Human 5-HT2A (h5-HT2A)
  Emax % 5-HT: 23 % 5-HT and 23 ± 2 % 5-HT
Mouse 5-HT2A (m5-HT2A); EC50, nM, Ca^2+ flux
  EC50: 45 nM
Mouse 5-HT2A (m5-HT2A)
  Emax % 5-HT: 35 ± 2 % 5-HT
Human 5-HT2B (h5-HT2B)
  agonist activity: no agonist activity
[1]
  agonist activity: no agonist activity
Male C57BL/6J mice [2]
  HTR potency as percent of the (molar) potency of LSD: ~ 14%
Male C57BL/6J mice [3]; ref Brandt et al. (2019)
  ED50 μg/kg (95% CI): 457.6 (334.9–625.5) μg/kg
  ED50 nmol/kg (95% CI): 976.7 (714.8–1335) nmol/kg
Male C57BL/6J mice [3]; ref Brandt et al. (2019), listed as 1-Butanoyl-LSD
  Molar potency (relative to LSD): 0.14

## CCC(=O)n1cc2c3c(cccc31)C1=C[C@@H](C(=O)N(CC)CC)CN(C)[C@@H]1C2 [1P-LSD, 1-propanoyl-D-lysergic acid diethylamide]
Human 5-HT1A receptor
  Ki: 637 ± 97 nM
  fold lower affinity than LSD for the 5-HT1A receptor: 67 fold
Human 5-HT2A receptor
  Ki: 196 ± 19 nM
Human 5-HT2C receptor
  Ki: 13 ± 1.7 nM
Human 5-HT2A (h5-HT2A); EC50, nM
  EC50: 11 nM
Human 5-HT2A (h5-HT2A); pEC50 ± SEM
  EC50: 10.2 nM
Human 5-HT2A (h5-HT2A)
  Emax % 5-HT: 11 % 5-HT and 11 ± 1 % 5-HT
Mouse 5-HT2A (m5-HT2A)
  Emax % 5-HT: 23 ± 1 % 5-HT
Human 5-HT2B (h5-HT2B)
  agonist activity: no agonist activity
[1]; h5-HT2C, Ca^2+ flux
  agonist activity: no agonist activity
Male C57BL/6J mice [3]; ref Brandt et al. (2016)
  ED50 μg/kg (95% CI): 158.9 (65.0–388.8) μg/kg
  ED50 nmol/kg (95% CI): 349.6 (143.0–855.4) nmol/kg
  Molar potency (relative to LSD): one-third
Male C57BL/6J mice [3]; ref Brandt et al. (2016), listed as 1-Propanoyl-LSD
  Molar potency (relative to LSD): 0.38
